The assay deals with T1, mAChR M4 (UniProt P08173).
T1 construct: hM1 and hM4 cDNAs were purchased from Missouri S&T cDNA Resource
T1 sequence (P08173 1-479): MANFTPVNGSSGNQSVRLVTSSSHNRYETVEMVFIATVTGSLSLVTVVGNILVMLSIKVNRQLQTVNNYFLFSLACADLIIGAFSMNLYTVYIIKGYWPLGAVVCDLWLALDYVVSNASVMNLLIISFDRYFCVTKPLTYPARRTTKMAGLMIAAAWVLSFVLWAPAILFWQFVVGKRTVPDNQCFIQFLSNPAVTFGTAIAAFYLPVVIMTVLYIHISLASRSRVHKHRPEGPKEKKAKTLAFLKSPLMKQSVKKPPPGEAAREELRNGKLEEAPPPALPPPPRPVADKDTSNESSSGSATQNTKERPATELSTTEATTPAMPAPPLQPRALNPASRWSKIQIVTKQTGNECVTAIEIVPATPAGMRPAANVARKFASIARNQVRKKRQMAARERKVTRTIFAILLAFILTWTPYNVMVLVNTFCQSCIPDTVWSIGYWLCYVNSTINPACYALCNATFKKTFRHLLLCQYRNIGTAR
In words: mAChR M4 cell-based functional assay (calcium mobilization, Fluo-4, FDSS). The following applies: for Emax (%)*: % ACh maximum at 30 μM; for pEC50: positive allosteric modulator activity, EC20 acetylcholine response; for pEC50 / EC50: CHO-K1 cells; for EC50: positive allosteric modulator activity: concentration-dependent increase in the EC20 acetylcholine response, >10 μM estimated for low potency (no plateau). Summed up: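 CHO-K1 cells stably expressing hM4 or rM4 with chimeric Gqi5, loaded with Fluo-4 AM for 50 min at 37° C. Calcium read on FDSS 6000 over 300 s: compound added at 4 s, acetylcholine EC20 at 144 s and EC80 at 230 s. Agonist, PAM (EC20 increase) and antagonist (EC80 decrease) values fitted by four-parameter logistic.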

Data on 27 compounds can be found in US9056876B2, “Substituted 1H-pyrazolo[3′,4′,4,5]thieno[2,3-b]pyridin-3-amine analogs as positive allosteric modulators of the muscarinic acetylcholine receptor M4” (VANDERBILT UNIVERSITY, priority 2011, dated 2015).

For `Cc1cc(C)c2c(n1)sc1c(NC(C)C)nn(C)c12` [Compound 41, N-isopropyl-1,6,8-trimethyl-1H-pyrazolo[3′,4′:4,5]thieno[2,3-b]pyridin-3-amine], the “Emax (%)*” value came to 87%, the pEC50 came out at 6.11 and the EC50 is 0.78 µM.

On to `Cc1cc(C)c2c(n1)sc1c(NCc3ccc(Cl)o3)nn(C)c12` [Compound 79, N-((5-chlorofuran-2-yl)methyl)-1,6,8-trimethyl-1H-pyrazolo[3′,4′:4,5]thieno[2,3-b]pyridin-3-amine], for which the “Emax (%)*” value is 80%, the pEC50 came to 6.51 and the EC50 was 0.31 µM.

Turning to `Cc1cc(C)c2c(n1)sc1c(NC3CCCNC3)n[nH]c12` (centres unmarked) [Compound 136, 6,8-dimethyl-N-(piperidin-3-yl)-1H-pyrazolo[3′,4′:4,5]thieno[2,3-b]pyridin-3-amine], the pEC50 is on record as less than 5.00 and the EC50 was more than 10 µM.

As to `Cc1ccc(CNc2nn(C)c3c2sc2nc(C)cc(C)c23)c(C)c1` [Compound 59, N-(2,4-dimethylbenzyl)-1,6,8-trimethyl-1H-pyrazolo[3′,4′:4,5]thieno[2,3-b]pyridin-3-amine], the “Emax (%)*” value was found to be 57%, the pEC50 was 5.60 and the EC50 is 2.5 µM.

On to `Cc1cc(C)c2c(n1)sc1c(NC(C)C)nn(CCO)c12` [Compound 112, 2-(3-(isopropylamino)-6,8-dimethyl-1H-pyrazolo[3′,4′:4,5]thieno[2,3-b]pyridin-1-yl)ethanol], for which the “Emax (%)*” value was 71%, the pEC50 came out at 5.68 and the EC50 was 2.1 µM.

For `Cc1cc(C)c2c(n1)sc1c(NC3CCCCC3)nn(C)c12` [Compound 66, N-cyclohexyl-1,6,8-trimethyl-1H-pyrazolo[3′,4′:4,5]thieno[2,3-b]pyridin-3-amine], the “Emax (%)*” value stood at 73%, the negative logarithm of the EC50 (pEC50) is reported as 5.92 and the EC50 is 1.2 µM.

Turning to `Cc1cc(C)c2c(n1)sc1c(NC3CCN(C)CC3)nn(C)c12` [Compound 74, 1,6,8-trimethyl-N-(1-methylpiperidin-4-yl)-1H-pyrazolo[3′,4′:4,5]thieno[2,3-b]pyridin-3-amine], the “Emax (%)*” value is 52%, the negative-log EC50 (pEC50) worked out at 5.52 and the EC50 is 3 µM.

For the compound `Cc1nc2sc3c(NCc4ccccc4F)n[nH]c3c2c(C)c1Cl` [Compound 147, 7-chloro-N-(2-fluorobenzyl)-6,8-dimethyl-1H-pyrazolo[3′,4′:4,5]thieno[2,3-b]pyridin-3-amine], the negative-log EC50 (pEC50) is less than 5.00 and the EC50 was more than 10 µM.

`Cc1cc(C)c2c(n1)sc1c(NC3CCN(C(C)C)CC3)nn(C)c12` [Compound 162, N-(1-isopropylpiperidin-4-yl)-1,6,8-trimethyl-1H-pyrazolo[3′,4′:4,5]thieno[2,3-b]pyridin-3-amine]: the pEC50 was less than 5.00 and the EC50 was more than 10 µM.

In the case of `COc1cc(OC)cc(C(C)Nc2nn(C)c3c2sc2nc(C)cc(C)c23)c1` (centres unmarked) [Compound 48, N-(1-(3,5-dimethoxyphenyl)ethyl)-1,6,8-trimethyl-1H-pyrazolo[3′,4′:4,5]thieno[2,3-b]pyridin-3-amine], the “Emax (%)*” value was 38%, the pEC50 is listed as less than 5.00 and the EC50 was more than 10 µM.

As to `CCNc1n[nH]c2c1sc1nc(C)cc(C)c12` [Compound 15, N-ethyl-6,8-dimethyl-1H-pyrazolo[3′,4′:4,5]thieno[2,3-b]pyridin-3-amine], the “Emax (%)*” value was 65%, the negative-log EC50 (pEC50) amounted to 5.68 and the EC50 was 2.1 µM.

With `Cc1cc(C)c2c(n1)sc1c(NC(C)CS(C)(=O)=O)nn(C)c12` (centres unmarked) [Compound 164, 1,6,8-trimethyl-N-(1-(methylsulfonyl)propan-2-yl)-1H-pyrazolo[3′,4′:4,5]thieno[2,3-b]pyridin-3-amine], the pEC50 is listed as less than 5.00 and the 50% effective concentration (EC50) is more than 10 µM.

On to `Cc1ccnc2sc3c(NCc4ccco4)nn(C)c3c12` [Compound 71, N-(furan-2-ylmethyl)-1,8-dimethyl-1H-pyrazolo[3′,4′:4,5]thieno[2,3-b]pyridin-3-amine], for which the “Emax (%)*” value was determined as 66%, the negative logarithm of the EC50 (pEC50) worked out at 6.00 and the EC50 was 1 µM.

Consider `CCC(=O)Nc1nn(C)c2c1sc1nc(C)cc(C)c12` [Compound 47, N-(1,6,8-trimethyl-1H-pyrazolo[3′,4′:4,5]thieno[2,3-b]pyridin-3-yl)propionamide], for which the “Emax (%)*” value is given as 43%, the pEC50 was determined as 5.54 and the EC50 is 2.9 µM.

On to `Cc1ccc2c(n1)sc1c(NC(C)C)n[nH]c12` [Compound 45, N-isopropyl-6-methyl-1H-pyrazolo[3′,4′:4,5]thieno[2,3-b]pyridin-3-amine], for which the “Emax (%)*” value is recorded as 37%, the pEC50 is listed as less than 5.00 and the concentration for a half-maximal effect (EC50) is more than 10 µM.

Turning to `COc1ccc(CNc2n[nH]c3c2sc2nc(C)c(Cl)c(C)c23)cc1` [Compound 143, 7-chloro-N-(4-methoxybenzyl)-6,8-dimethyl-1H-pyrazolo[3′,4′:4,5]thieno[2,3-b]pyridin-3-amine], the pEC50 is listed as less than 5.00 and the EC50 was more than 10 µM.

With `Cc1cc(C)c2c(n1)sc1c(NCc3ccc(S(C)(=O)=O)cc3)nn(CCO)c12` [Compound 116, 2-(6,8-dimethyl-3-((4-(methylsulfonyl)benzyl)amino)-1H-pyrazolo[3′,4′:4,5]thieno[2,3-b]pyridin-1-yl)ethanol], the “Emax (%)*” value was found to be 73%, the pEC50 was 7.24 and the EC50 is 0.057 µM.

On to `Cc1cc(C)c2c(n1)sc1c(NCC3CC3)n[nH]c12` [Compound 7, N-(cyclopropylmethyl)-6,8-dimethyl-1H-pyrazolo[3′,4′:4,5]thieno[2,3-b]pyridin-3-amine], for which the “Emax (%)*” value worked out at 68%, the pEC50 stood at 5.90 and the EC50 was 1.26 µM.

Regarding `Cc1cc(C)c2c(n1)sc1c(NCc3ccccc3)nn(C)c12` [Compound 33, N-benzyl-1,6,8-trimethyl-1H-pyrazolo[3′,4′:4,5]thieno[2,3-b]pyridin-3-amine], the “Emax (%)*” value is reported as 75%, the pEC50 worked out at 6.89 and the EC50 is 0.13 µM.

As for `Cc1cc(C)c2c(n1)sc1c(NCc3ccc(C#N)c(F)c3)nn(C)c12` [Compound 90, 2-fluoro-4-(((1,6,8-trimethyl-1H-pyrazolo[3′,4′:4,5]thieno[2,3-b]pyridin-3-yl)amino)methyl)benzonitrile], the “Emax (%)*” value was found to be 52%, the pEC50 amounted to 6.60 and the EC50 is 0.25 µM.

With `Cc1cc(C)c2c(n1)sc1c(NCC(C)C)n[nH]c12` [Compound 37, N-isobutyl-6,8-dimethyl-1H-pyrazolo[3′,4′:4,5]thieno[2,3-b]pyridin-3-amine], the “Emax (%)*” value is given as 53%, the pEC50 stood at 5.43 and the EC50 was 3.7 µM.

Regarding `Cc1ccnc2sc3c(NCc4ccncc4)nn(C)c3c12` [Compound 62, 1,8-dimethyl-N-(pyridin-4-ylmethyl)-1H-pyrazolo[3′,4′:4,5]thieno[2,3-b]pyridin-3-amine], the “Emax (%)*” value was 74%, the pEC50 came out at 6.19 and the EC50 is 0.64 µM.

Regarding `CCCCC(=O)Nc1n[nH]c2c1sc1nc(C)cc(C)c12` [Compound 129, N-(6,8-dimethyl-1H-pyrazolo[3′,4′:4,5]thieno[2,3-b]pyridin-3-yl)pentanamide], the negative logarithm of the EC50 (pEC50) was less than 5.00 and the EC50 was more than 10 µM.

With `Cc1nc2sc3c(NCc4ccco4)n[nH]c3c2c(C)c1Cl` [Compound 20, 7-chloro-N-(furan-2-ylmethyl)-6,8-dimethyl-1H-pyrazolo[3′,4′:4,5]thieno[2,3-b]pyridin-3-amine], the “Emax (%)*” value is 48%, the pEC50 came to 5.85 and the concentration for a half-maximal effect (EC50) was 1.4 µM.

Turning to `Cc1cc(C)c2c(n1)sc1c(NCc3ccco3)nn(C)c12` [Compound 40, N-(furan-2-ylmethyl)-1,6,8-trimethyl-1H-pyrazolo[3′,4′:4,5]thieno[2,3-b]pyridin-3-amine], the “Emax (%)*” value stood at 85%, the pEC50 turned out to be 6.96 and the EC50 is 0.11 µM.

On to `Cc1cc(C)c2c(n1)sc1c(NC3CCN(C)CC3)n[nH]c12` [Compound 134, 6,8-dimethyl-N-(1-methylpiperidin-4-yl)-1H-pyrazolo[3′,4′:4,5]thieno[2,3-b]pyridin-3-amine], for which the pEC50 is given as less than 5.00 and the EC50 is more than 10 µM.

In the case of `Cc1cc(C)c2c(n1)sc1c(NCc3ccc(S(C)(=O)=O)c(F)c3)nn(C)c12` [Compound 94, N-(3-fluoro-4-(methylsulfonyl)benzyl)-1,6,8-trimethyl-1H-pyrazolo[3′,4′:4,5]thieno[2,3-b]pyridin-3-amine], the “Emax (%)*” value was 74%, the pEC50 turned out to be 7.09 and the EC50 is 0.081 µM.

Usually pEC50 stands for the EC50 on a negative log10 scale, so that one unit is a factor of ten. As a reminder, the EC50 is the midpoint of the concentration-response curve.
